According to publication PMC6203393, “Identification of novel antimicrobial peptide from Asian sea bass (Lates calcarifer) by in silico and activity characterization” (PLoS ONE, 2018):
Where two headings read alike, the source gives them in different places.

Columns and labels:
[1] = system: E. faecalis; assay: Antibiofilm assay, pH effect (crystal violet); format: cell-based, Enterococcus faecalis; details: peptide at 1/32×MIC, BHI pH 7.4, 8.5, 9.5, 10.5, 24 hours, 595 nm
[2] = system: Enterococcus faecalis (ATCC:6057); assay: MIC at different pH values; format: cell-based; details: 37°C for 18 hours
Protocol: The antibacterial activity of both peptides were assessed against Enterococcus faecalis, a bacteria resistance to alkaline environments (ATCC:6057), at different pH values (pH range: 7.4, 8.5, 9.5, or 10.5). The bacteria were cultured in the BHI medium adjusted to varying pH values (pH range: 7.4, 8.5, 9.5, and 10.5). After incubation at 37°C for 18 hours, the MIC values were determined.

[3] = system: Staphylococcus epidermidis (ATCC 1435); format: cell-based; details: Brain heart infusion; 5×10^5 cell/ml; 18 hours at 37 °C; three independent tests
Protocol: (§1) Briefly, a series of two-fold dilutions of each peptide(300, 150, 75, 37.5, 18.75, 9.37, 4.68 and 2.34μg/ml) was created with 0.01% acetic acid and 0.2% BSA (bovine serum albumin) and then 50 μl of each peptide dilution was added to each well of polystyrene flat bottom 96-well microplate (Sigma-Aldrich, Germany). Microbial suspension was diluted with BHI medium or RPMI medium to provide density of 1×10^6 cell/ml and 50 μl of diluted microbial suspension was added to wells containing 50 μl of peptide solution, providing a final concentration of 5×10^5 cell/ml and incubated for 18 hours at 37 °C. The sterility control well contained 100 μl of BHI (or RPMI), while the growth control well contained 100 μl of microbial suspension (5×10^5 cell/ml). The MIC values was defined as the lowest peptide concentration that prevented visible growth of the bacteria. Three independent tests were performed for each peptide concentration.

[4] = system: Candida albicans (clinical isolate); format: cell-based; details: RPMI medium; 5×10^5 cell/ml; 18 hours at 37 °C; three independent tests
Protocol: as §1

[5] = system: Staphylococcus aureus(ATCC 25923); format: cell-based; details: Brain heart infusion; 5×10^5 cell/ml; 18 hours at 37 °C; three independent tests
Protocol: as §1

[6] = system: Candida glabrata(clinical isolate); format: cell-based; details: RPMI medium; 5×10^5 cell/ml; 18 hours at 37 °C; three independent tests
Protocol: as §1

[7] = system: Pseudomonas aeruginosa (ATCC10662); format: cell-based; details: Brain heart infusion; 5×10^5 cell/ml; 18 hours at 37 °C; three independent tests
Protocol: as §1

[8] = system: Candida tropicalis(clinical isolate); format: cell-based; details: RPMI medium; 5×10^5 cell/ml; 18 hours at 37 °C; three independent tests
Protocol: as §1

[9] = system: Staphylococcus aureus(MRSA); format: cell-based; details: Brain heart infusion; 5×10^5 cell/ml; 18 hours at 37 °C; three independent tests
Protocol: as §1

[10] = system: clinical A. baumannii isolate; assay: Time-kill analysis; format: cell-based, Acinetobacter baumannii; details: 5×10^5 cell/ml in BHI, 37°C, bactericidal = ≥3-log10 reduction, mean of two independent experiments
Protocol: Time-Kill assay was performed to investigate bactericidal activity of both peptides against antibiotic resistant bacteria including S. aureus (MRSA), and clinical A. baumannii isolate. […] Colony count was performed after incubation at 37°C for 0, 2, 4, 8, 12 and 24 h by plating of 10-fold dilutions on LB agar. […] The lower limit of detection for time-kill assays was 2 log10 CFU/ml.

[11] = system: Acinetobacterbaumannii(Clinical isolate); format: cell-based, Acinetobacter baumannii; details: Brain heart infusion; 5×10^5 cell/ml; 18 hours at 37 °C; three independent tests
Protocol: as §1

[12] = system: Escherichia coli (ATCC 25922); format: cell-based; details: for increase of MIC value: E.coli
Protocol: as §1
In the next step, the pH and salt concentration effect on MIC of AMPs were assayed. To evaluate the effect of cations on the antibacterial activity of AMPs, bacteria were cultured in the BHI medium containing increased concentrations of monovalent or divalent salt including NaCl (62,125,250 and 500 mM), MgCl2 (1,5, 10 and 30 mM), respectively.

[13] = system: E.coli; assay: Binding affinity to bacteria, cell-based fluorometric ELISA, salt effect; parameters: species or system Escherichia coli; details: in the presence of 10 mM MgCl2; 5-FAM-labeled peptide 2.5μg/ml, 2 hours at 37°C; fluorescence 490/560 nm
Protocol: Antimicrobial peptides bind to the bacterial cell wall through an electrostatic interaction between the positive charge of AMPs with the negative charge of the bacterial cell wall. […] To determine optimal binding conditions, different concentrations of the bacteria (12.5×10^7, 25×10^7, 5×10^8, 1×10^9 cell/ml) and 5-FAM-labeled peptide (1.25, 2.5, 5, and 10 μg/ml) were prepared. Bacterial suspension from each bacterial concentration was added to 4 wells of Maxisorp 96-well microplates (each well 100 μl) and incubated for 3 hours at 37°C without agitation. The planktonic cells were carefully discarded by pipetting and the adherent cells were washed three times with PBS buffer (pH 7.4). Bacteria were fixed with 100 μl of 4% paraformaldehyde and incubated for 0.5 hours at 37°C. The paraformaldehyde was removed and the wells were washed three times with PBS buffer (pH 7.4). The wells were air-dried and fixed cells were confirmed with an inverted microscope. […] After three washing steps with PBS-T buffer, the fluorescence intensity was measured using a fluorescence microplate reader (BioTek Synergy 4, USA) at 490/560 nm (Ex/Em). […] Under the optimized conditions, the binding affinity of both peptides to bacteria was assessed. […]

[14] = RP HPLC retention time of peptides; format: physicochemical; details: Inertsil ODS-SP 4.6*250 mm 5μm, linear 0–100% acetonitrile with 0.1% trifluoroacetic acid, 1ml/minute, 30 minutes, highest peak in 214 nm, used as hydrophobicity measure
Protocol: The retention time of the peptides were calculated by RP HPLC using an analytical SHIMADZU Inertsil ODS-SP (4.6*250 mm* 5μm) column. A linear gradient of 0–100% acetonitrile supplemented with 0.1% trifluoroacetic acid was used to elute peptides at a flow rate 1ml/minute for 30 minutes. The highest peak in 214 nm was considered as the retention time for each peptide.

[15] = system: E. faecalis; assay: Antiadhesive assay, pH effect (crystal violet); format: cell-based, Enterococcus faecalis; details: peptide at 1/32×MIC, BHI pH 7.4, 8.5, 9.5, 10.5, 1 hour, 595 nm

Sequence: FLRSLLRGAKAIYRGARAGWRG [Dicentracin-like, 22-amino-acid mature AMP from Asian sea bass; synthesized with N-terminal 5-FAM and amidated C-terminus]
- antibiofilm activity (biofilm formation relative to corresponding control) [1]: significantly decrease the bacterial adhesion and biofilm formation at pH values from 7.4 to 9.5
- MIC(fold increase) ([2]; BHI medium pH 7.4): 1 fold
- MIC(fold increase) ([2]; BHI medium pH 8.5): 1 fold
- MIC(fold increase) ([2]; BHI medium pH 8.5, listed as dicentracin-like): no reduction
- MIC(fold increase) ([2]; BHI medium pH 9.5): 2 fold
- MIC(fold increase) ([2]; BHI medium pH 10.5): 4 fold
- minimum inhibitory concentration (MIC) [3]: 1.17 µg/mL
- minimum inhibitory concentration (MIC) [4]: 4.68 to 9.37 µg/mL
- minimum inhibitory concentration (MIC) [5]: 4.68 µg/mL
- minimum inhibitory concentration (MIC) [6]: >150 µg/mL
- minimum inhibitory concentration (MIC) [7]: 37.5 µg/mL
- minimum inhibitory concentration (MIC) [8]: 4.68 to 9.37 µg/mL
- minimum inhibitory concentration (MIC) [9]: 4.68 µg/mL
- time after which bactericidal effect was observed ([10]; 1XMIC): 4 h
- time after which bactericidal effect was observed ([10]; 2XMIC): 2 h
- minimum inhibitory concentration (MIC) [11]: 18.75 µg/mL
- Activity (MIC) against E.coli ([12]; BHI medium with MgCl2 1 mM): 4.68 µg/mL
- Activity (MIC) against E.coli ([12]; BHI medium with MgCl2 5 mM): 18.75 µg/mL
- Activity (MIC) against E.coli ([12]; BHI medium with MgCl2 10 mM): 18.75 µg/mL
- Activity (MIC) against E.coli ([12]; BHI medium with MgCl2 30 mM): 75 µg/mL
- Activity (MIC) against E.coli ([12]; BHI medium with NaCl 62 mM): 4.68 µg/mL
- Activity (MIC) against E.coli ([12]; BHI medium with NaCl 125 mM): 4.68 µg/mL
- Activity (MIC) against E.coli ([12]; BHI medium with NaCl 250 mM): 6.05 µg/mL
- Activity (MIC) against E.coli ([12]; BHI medium with NaCl 500 mM): 9.37 µg/mL
- minimum inhibitory concentration (MIC) ([12]; Brain heart infusion, 5×10^5 cell/ml, 18 hours at 37 °C, lowest concentration preventing visible growth, three independent tests): 4.68 µg/mL
- increase of MIC value ([12]; in the presence of 5 mM and 10 mM MgCl2, MIC (MgCl2) /MIC): 4 fold
- increase of MIC value ([12]; in the presence of 30 mM MgCl2): 16 fold
- increase of MIC value ([12]; in the presence of 500 mM NaCl): 2 fold
- Activity (MIC) against E.coli ([12]; Physiological salt concentrations (150 mM NaCl 3 mM CaCl2 2 mM MgCl2)): 4.68 µg/mL
- reduction in affinity binding to bacteria [13]: 1.6 fold
- retention time (main peak) [14]: 20.518 min
- antiadhesive activity (bacterial adhesion relative to corresponding control) [15]: significantly decrease the bacterial adhesion and biofilm formation at pH values from 7.4 to 9.5
